The values that follow are results of earlier work, collected in patent US20190231888A1, “TEXAPHYRIN AND ANTITUMOR ANTIBIOTIC CONJUGATES” (priority 2016, published 2019).

The conditions of the data set: intravenous, determined in one study; cited from earlier work.

Consider lutetium texaphyrin, for which the maximum tolerated dose is recorded as 5.2 mg/kg.
